Measurements published in patent US4170656A, “Compositions containing cis-2-benzoyl-3-hydroxy-crotononitrile used to treat inflammation and joint deterioration” (priority 1978, dated 1979).

Assays:
[1] = Carrageenin induced paw edema in rats (acute anti-inflammatory activity); assay type: in vivo, Royal Hart, Wistar strain rats; settings: 250 mg./kg. by gavage; 5 hours after drug (4 hours after carrageenin); ratio greater than 1.41 is active
Method: In determining the acute anti-inflammatory activity of the cis-2-benzoyl-3-hydroxy-2-alkenonitriles of the present invention, Royal Hart, Wistar strain rats, ranging in weight from 80 to 90 grams were used. The rats were fasted overnight prior to dosing but had free access to water. The test compounds were administered in aqueous suspension, by gavage, in a volume of 1.7 ml. per 50 grams of rat [corresponds to hydration volume used by Winter, et al., Proc. Soc. […] The phlogistic agent used was carrageenin prepared as a sterile 1% suspension in 0.9% aqueous sodium chloride for routine testing. A volume of 0.05 ml. was injected through a 26 gauge needle into the plantar tissue of the right hind paw. Measurements were made 5 hours after drug administration (4 hours after carrageenin challenge). Volumes of both the normal and carrageenin inflammed feet were determined. The difference between the two measurements is considered to be the increased edema due to the carrageenin administration.

[2] = Ultraviolet induced erythema in guinea pigs; assay type: in vivo, Albino guinea pigs; design: key: sum of 3 sites, each 0 = none, 0.5 = faint, 1.0 = distinct; max 3.0; settings: maximum 3.0
Method: Albino guinea pigs were depilitated on their flanks, the evening before testing, with a standard mixture of barium sulfide and gum acacia. On the morning of the test, groups of four guinea pigs were dosed by gavage one hour prior (-1 hour) to ultraviolet exposure. At 0 hour they were restrained in a plastic container which allows exposure of 3 circular spots. They were then exposed to ultraviolet irradiation from a "Hanovia" Kromayer lamp, model 10, for 60 seconds. At one and four hours, the degree of erythema for each of the three sites was assessed according to the following scoring system: 0= no erythema, 0.5=incomplete circle or faint erythema, and 1.0=complete circle of distinct erythema. Thus, the maximum score for each animal was 3.0.

[3] = Adjuvant induced arthritis in rats (Freund's adjuvant); assay type: in vivo, Royal Hart, Wistar strain rats; settings: for Dead/Treated At 21 Days: days 0-13
Method: Groups of three Royal Hart, Wistar strain rats weighing 200±10 grams each were injected intradermally in the right hind paw with Freund's adjuvant (dried human tubercle bacilli in a mineral oil vehicle) at a dose of 2 mg./kg. of body weight. Test compound was administered orally in a 1.5% starch vehicle at various doses once daily on days 0 through 13 post challenge. Control rats were treated in a similar manner, but given only starch vehicle. On the 14th and 21st day post challenge the diameter of the injected paw (primary lesion) was measured by micrometer caliper. The volume of inflamed paws were estimated from these measurements and the results are expressed as percent inhibition of swelling as compared to controls. At the same time, the other inflamed sites, such as ears, paws and tail (seconday lesions) were observed and each rat was graded as to degree of inflammation and swelling present. The grading is based on a scale of 0 to 24, where 0 represents a complete absence of induced arthritic nodules and 24 represents the maximum degree of inflammation. The mean grade for each treated group is calculated and the effects of each compound are expressed as percent inhibition of the control grade. Table I records the results of tests conducted with a typical compound of the present invention and known anti-inflammatory agents.

C/C(O)=C(\C#N)C(=O)c1ccccc1 [Cis-2-benzoyl-3-hydroxy-crotononitrile, Cis-2-benzoyl-3-hydroxycrotononitrile]
C/T Edema Ratio [1]: 2.3 | Erythema Score (avg.) ([2]; oral 15.6 mg./kg., 1 hour): 2.3 | Erythema Score (avg.) ([2]; oral 15.6 mg./kg., 4 hours): 2.5 | Erythema Score (avg.) ([2]; oral 31.3 mg./kg., 1 hour): 0.8 | Erythema Score (avg.) ([2]; oral 31.3 mg./kg., 4 hours): 2.3 | Erythema Score (avg.) ([2]; oral 62.5 mg./kg., 1 hour): 0.8 | Erythema Score (avg.) ([2]; oral 62.5 mg./kg., 4 hours): 2.4 | Erythema Score (avg.) ([2]; oral 125 mg./kg., 1 hour): 0 | Erythema Score (avg.) ([2]; oral 125 mg./kg., 4 hours): 1.3 | % Inhibition of Control Grade (secondary lesion) ([3]; oral 25 mg./kg., Day 14): 10% | % Inhibition of Swelling (primary lesion) ([3]; oral 25 mg./kg., Day 14): 26% | Mean Weight Gain ([3]; oral 25 mg./kg., Day 14): 37 grams | % Inhibition of Control Grade (secondary lesion) ([3]; oral 25 mg./kg., Day 21): 1% | % Inhibition of Swelling (primary lesion) ([3]; oral 25 mg./kg., Day 21): 14% | Mean Weight Gain ([3]; oral 25 mg./kg., Day 21): 28 grams | Dead/Treated At 21 Days ([3]; oral 25 mg./kg.): 3/18 | % Inhibition of Control Grade (secondary lesion) ([3]; oral 50 mg./kg., Day 14): 14% | % Inhibition of Swelling (primary lesion) ([3]; oral 50 mg./kg., Day 14): 64% | Mean Weight Gain ([3]; oral 50 mg./kg., Day 14): 51 grams | % Inhibition of Control Grade (secondary lesion) ([3]; oral 50 mg./kg., Day 21): 17% | % Inhibition of Swelling (primary lesion) ([3]; oral 50 mg./kg., Day 21): 54% | Mean Weight Gain ([3]; oral 50 mg./kg., Day 21): 45 grams | Dead/Treated At 21 Days ([3]; oral 50 mg./kg.): 3/36 | % Inhibition of Control Grade (secondary lesion) ([3]; oral 100 mg./kg., Day 14): 38% | % Inhibition of Swelling (primary lesion) ([3]; oral 100 mg./kg., Day 14): 68% | Mean Weight Gain ([3]; oral 100 mg./kg., Day 14): 43 grams | % Inhibition of Control Grade (secondary lesion) ([3]; oral 100 mg./kg., Day 21): 46% | % Inhibition of Swelling (primary lesion) ([3]; oral 100 mg./kg., Day 21): 53% | Mean Weight Gain ([3]; oral 100 mg./kg., Day 21): 41 grams | Dead/Treated At 21 Days ([3]; oral 100 mg./kg.): 5/18 | progression of the arthritis and associated joint deterioration ([3]; oral, days 0 through 13): appears to suppress the progression of the arthritis and associated joint deterioration

CC(=O)Oc1ccccc1C(=O)O [Aspirin]
C/T Edema Ratio [1]: 2.8 | Erythema Score (avg.) ([2]; oral 31.3 mg./kg., 1 hour): 1.2 | Erythema Score (avg.) ([2]; oral 31.3 mg./kg., 4 hours): 2.3 | Erythema Score (avg.) ([2]; oral 62.5 mg./kg., 1 hour): 0.8 | Erythema Score (avg.) ([2]; oral 62.5 mg./kg., 4 hours): 2.0 | Erythema Score (avg.) ([2]; oral 125 mg./kg., 1 hour): 0.1 | Erythema Score (avg.) ([2]; oral 125 mg./kg., 4 hours): 2.0 | Erythema Score (avg.) ([2]; oral 250 mg./kg., 1 hour): 0.1 | Erythema Score (avg.) ([2]; oral 250 mg./kg., 4 hours): 1.2 | % Inhibition of Control Grade (secondary lesion) ([3]; oral 50 mg./kg., Day 14): 12% | % Inhibition of Swelling (primary lesion) ([3]; oral 50 mg./kg., Day 14): 23% | Mean Weight Gain ([3]; oral 50 mg./kg., Day 14): 56 grams | % Inhibition of Control Grade (secondary lesion) ([3]; oral 50 mg./kg., Day 21): 9% | % Inhibition of Swelling (primary lesion) ([3]; oral 50 mg./kg., Day 21): 3% | Mean Weight Gain ([3]; oral 50 mg./kg., Day 21): 44 grams | Dead/Treated At 21 Days ([3]; oral 50 mg./kg.): 2/21 | % Inhibition of Control Grade (secondary lesion) ([3]; oral 100 mg./kg., Day 14): 19% | % Inhibition of Swelling (primary lesion) ([3]; oral 100 mg./kg., Day 14): 36% | Mean Weight Gain ([3]; oral 100 mg./kg., Day 14): 48 grams | % Inhibition of Control Grade (secondary lesion) ([3]; oral 100 mg./kg., Day 21): 8% | % Inhibition of Swelling (primary lesion) ([3]; oral 100 mg./kg., Day 21): 13% | Mean Weight Gain ([3]; oral 100 mg./kg., Day 21): 53 grams | Dead/Treated At 21 Days ([3]; oral 100 mg./kg.): 18/63 | % Inhibition of Control Grade (secondary lesion) ([3]; oral 200 mg./kg., Day 14): 26% | % Inhibition of Swelling (primary lesion) ([3]; oral 200 mg./kg., Day 14): 48% | Mean Weight Gain ([3]; oral 200 mg./kg., Day 14): 40 grams | % Inhibition of Control Grade (secondary lesion) ([3]; oral 200 mg./kg., Day 21): 17% | % Inhibition of Swelling (primary lesion) ([3]; oral 200 mg./kg., Day 21): 27% | Mean Weight Gain ([3]; oral 200 mg./kg., Day 21): 44 grams | Dead/Treated At 21 Days ([3]; oral 200 mg./kg.): 10/66 | % Inhibition of Control Grade (secondary lesion) ([3]; oral 400 mg./kg., Day 14): 58% | % Inhibition of Swelling (primary lesion) ([3]; oral 400 mg./kg., Day 14): 73% | Mean Weight Gain ([3]; oral 400 mg./kg., Day 14): 41 grams | % Inhibition of Control Grade (secondary lesion) ([3]; oral 400 mg./kg., Day 21): 45% | % Inhibition of Swelling (primary lesion) ([3]; oral 400 mg./kg., Day 21): 48% | Mean Weight Gain ([3]; oral 400 mg./kg., Day 21): 55 grams | Dead/Treated At 21 Days ([3]; oral 400 mg./kg.): 18/57

CCCCC1C(=O)N(c2ccccc2)N(c2ccccc2)C1=O [Phenylbutazone]
C/T Edema Ratio [1]: 2.3 | Erythema Score (avg.) ([2]; oral 7.8 mg./kg., 1 hour): 1.1 | Erythema Score (avg.) ([2]; oral 7.8 mg./kg., 4 hours): 2.9 | Erythema Score (avg.) ([2]; oral 15.6 mg./kg., 1 hour): 0.4 | Erythema Score (avg.) ([2]; oral 15.6 mg./kg., 4 hours): 2.3 | Erythema Score (avg.) ([2]; oral 31.3 mg./kg., 1 hour): 0.4 | Erythema Score (avg.) ([2]; oral 31.3 mg./kg., 4 hours): 1.7 | Erythema Score (avg.) ([2]; oral 62.5 mg./kg., 1 hour): 0.3 | Erythema Score (avg.) ([2]; oral 62.5 mg./kg., 4 hours): 0.9 | Erythema Score (avg.) ([2]; oral 125 mg./kg., 1 hour): 0.1 | Erythema Score (avg.) ([2]; oral 125 mg./kg., 4 hours): 1.1 | Erythema Score (avg.) ([2]; oral 250 mg./kg., 1 hour): 0 | Erythema Score (avg.) ([2]; oral 250 mg./kg., 4 hours): 0.5 | % Inhibition of Control Grade (secondary lesion) ([3]; oral 18.8 mg./kg., Day 14): 4% | % Inhibition of Swelling (primary lesion) ([3]; oral 18.8 mg./kg., Day 14): 31% | Mean Weight Gain ([3]; oral 18.8 mg./kg., Day 14): 50 grams | % Inhibition of Control Grade (secondary lesion) ([3]; oral 18.8 mg./kg., Day 21): 8% | % Inhibition of Swelling (primary lesion) ([3]; oral 18.8 mg./kg., Day 21): 7% | Mean Weight Gain ([3]; oral 18.8 mg./kg., Day 21): 45 grams | Dead/Treated At 21 Days ([3]; oral 18.8 mg./kg.): 2/21 | % Inhibition of Control Grade (secondary lesion) ([3]; oral 37.5 mg./kg., Day 14): 18% | % Inhibition of Swelling (primary lesion) ([3]; oral 37.5 mg./kg., Day 14): 56% | Mean Weight Gain ([3]; oral 37.5 mg./kg., Day 14): 53 grams | % Inhibition of Control Grade (secondary lesion) ([3]; oral 37.5 mg./kg., Day 21): 13% | % Inhibition of Swelling (primary lesion) ([3]; oral 37.5 mg./kg., Day 21): 14% | Mean Weight Gain ([3]; oral 37.5 mg./kg., Day 21): 53 grams | Dead/Treated At 21 Days ([3]; oral 37.5 mg./kg.): 5/39 | % Inhibition of Control Grade (secondary lesion) ([3]; oral 75 mg./kg., Day 14): 27% | % Inhibition of Swelling (primary lesion) ([3]; oral 75 mg./kg., Day 14): 62% | Mean Weight Gain ([3]; oral 75 mg./kg., Day 14): 51 grams | % Inhibition of Control Grade (secondary lesion) ([3]; oral 75 mg./kg., Day 21): 15% | % Inhibition of Swelling (primary lesion) ([3]; oral 75 mg./kg., Day 21): 28% | Mean Weight Gain ([3]; oral 75 mg./kg., Day 21): 50 grams | Dead/Treated At 21 Days ([3]; oral 75 mg./kg.): 2/39 | % Inhibition of Control Grade (secondary lesion) ([3]; oral 150 mg./kg., Day 14): 54% | % Inhibition of Swelling (primary lesion) ([3]; oral 150 mg./kg., Day 14): 75% | Mean Weight Gain ([3]; oral 150 mg./kg., Day 14): 40 grams | % Inhibition of Control Grade (secondary lesion) ([3]; oral 150 mg./kg., Day 21): 31% | % Inhibition of Swelling (primary lesion) ([3]; oral 150 mg./kg., Day 21): 44% | Mean Weight Gain ([3]; oral 150 mg./kg., Day 21): 50 grams | Dead/Treated At 21 Days ([3]; oral 150 mg./kg.): 2/27
